Results as given in ChEMBL document CHEMBL3259796, “Synthesis and in-vivo hypolipidemic activity of some novel substituted phenyl isoxazol phenoxy acetic acid derivatives” (Bioorg Med Chem Lett, 2014).

Tests used:
[1] = Retardation factor of the compound using ethyl acetate/n-hexane at 1:1 ratio; format: physicochemical
Rattus norvegicus [2] = assay: Hypolipidemic activity in triton WR-1339 Wistar rat assessed as total cholesterol at 250 mg/kg, po for 7 days (reference value: 209 +/- 1.45 mg/dl); format: functional
Rattus norvegicus [3] = assay: Hypolipidemic activity in triton WR-1339 Wistar rat assessed as atherogenic index at 250 mg/kg, po for 7 days (reference value: 10.18 no unit); format: functional
Rattus norvegicus [4] = assay: Hypolipidemic activity in triton WR-1339 Wistar rat assessed as increase in protection at 250 mg/kg, po for 7 days; format: functional
Rattus norvegicus [5] = assay: Hypolipidemic activity in triton WR-1339 Wistar rat assessed as low-density lipoprotein at 250 mg/kg, po for 7 days (reference value: 154 +/- 1.82 mg/dl); format: functional
Rattus norvegicus [6] = assay: Hypolipidemic activity in triton WR-1339 Wistar rat assessed as triglyceride at 250 mg/kg, po for 7 days (reference value: 190 +/- 1.98 mg/dl); format: functional
Rattus norvegicus [7] = assay: Hypolipidemic activity in triton WR-1339 Wistar rat assessed as high-density lipoprotein at 250 mg/kg, po for 7 days (reference value: 17 +/- 1.70 mg/dl); format: functional
Rattus norvegicus [8] = assay: Hypolipidemic activity in triton WR-1339 Wistar rat assessed as very low-density lipoprotein at 250 mg/kg, po for 7 days (reference value: 38 +/- 1.80 mg/dl); format: functional
[9] = Retardation factor of the compound using chloroform/methanol at 4:1 ratio; format: physicochemical

| Rf [1] | Rf [9] | SMILES | Activity (Rattus norvegicus [2]) [mg/dL] | AI (Rattus norvegicus [3]) | Activity (Rattus norvegicus [4]) [%] | Activity (Rattus norvegicus [5]) [mg/dL] | Activity (Rattus norvegicus [6]) [mg/dL] | Activity (Rattus norvegicus [7]) [mg/dL] | Activity (Rattus norvegicus [8]) [mg/dL] |
| --- | --- | --- | --- | --- | --- | --- | --- | --- | --- |
| – | 0.48 | COc1cc(/C=C/C(=O)c2ccc(O)cc2)cc(OC)c1OC | – | – | – | – | – | – | – |
| – | 0.56 | O=C(/C=C/c1ccc(Cl)cc1)c1ccc(O)cc1 | – | – | – | – | – | – | – |
| – | 0.53 | O=C(/C=C/c1ccccc1)c1ccc(O)cc1 [4'-HYDROXYCHALCONE] | – | – | – | – | – | – | – |
| – | 0.52 | O=C(/C=C/c1c(Cl)cccc1Cl)c1ccc(O)cc1 | – | – | – | – | – | – | – |
| – | 0.6 | O=C(/C=C/c1ccccc1Cl)c1ccc(O)cc1 | – | – | – | – | – | – | – |
| – | 0.51 | COc1ccccc1/C=C/C(=O)c1ccc(O)cc1 | – | – | – | – | – | – | – |
| – | 0.62 | O=C(/C=C/c1ccc(O)cc1)c1ccc(F)cc1 | – | – | – | – | – | – | – |
| – | 0.61 | O=C(/C=C/c1ccco1)c1ccc(O)cc1 | – | – | – | – | – | – | – |
| – | 0.49 | O=C(/C=C/c1ccccc1O)c1ccccc1 | – | – | – | – | – | – | – |
| – | 0.54 | COc1cc(/C=C/C(=O)c2ccccc2)ccc1O | – | – | – | – | – | – | – |

Further lines, the compound ahead of its results:

| SMILES | Rf [1] | Rf [9] | Activity (Rattus norvegicus [2]) [mg/dL] | AI (Rattus norvegicus [3]) | Activity (Rattus norvegicus [4]) [%] | Activity (Rattus norvegicus [5]) [mg/dL] | Activity (Rattus norvegicus [6]) [mg/dL] | Activity (Rattus norvegicus [7]) [mg/dL] | Activity (Rattus norvegicus [8]) [mg/dL] |
| --- | --- | --- | --- | --- | --- | --- | --- | --- | --- |
| Oc1ccc(-c2cc(-c3ccccc3)no2)cc1 | 0.56 | – | – | – | – | – | – | – | – |
| Oc1ccc(-c2cc(-c3ccc(F)cc3)on2)cc1 | 0.5 | – | – | – | – | – | – | – | – |
| Oc1ccccc1-c1cc(-c2ccccc2)on1 | 0.6 | – | – | – | – | – | – | – | – |
| Oc1ccc(-c2cc(-c3c(Cl)cccc3Cl)no2)cc1 | 0.58 | – | – | – | – | – | – | – | – |
| O=C(O)COc1ccc(-c2cc(-c3ccc(Cl)cc3)no2)cc1 | 0.53 | – | 83.5 | 2.21 | 78.29 | 16.2 | 131.5 | 41 | 26.3 |
| COc1ccccc1-c1cc(-c2ccc(OCC(=O)O)cc2)on1 | 0.45 | – | 77.5 | 1.64 | 83.89 | 10.5 | 117.5 | 44.5 | 23.5 |
| COc1cc(-c2cc(-c3ccc(OCC(=O)O)cc3)on2)cc(OC)c1OC | 0.51 | – | 82.5 | 2.09 | 79.47 | 29 | 125 | 40.5 | 25.5 |
| O=C(O)COc1ccccc1-c1cc(-c2ccccc2)on1 | 0.52 | – | 91 | 1.91 | 81.24 | 23.3 | 123.5 | 42.5 | 25.2 |
| O=C(O)COc1ccc(-c2cc(-c3ccccc3Cl)no2)cc1 | 0.48 | – | 148.5 | 1.75 | 82.81 | 86.5 | 110 | 40 | 22 |
| COc1cc(-c2cc(-c3ccccc3)on2)ccc1OCC(=O)O | 0.56 | – | 94 | 1.5 | 85.27 | 25 | 115 | 46 | 23 |
| Oc1ccc(-c2cc(-c3ccccc3Cl)no2)cc1 | 0.6 | – | – | – | – | – | – | – | – |
| O=C(O)COc1ccc(-c2cc(-c3ccccc3)no2)cc1 | 0.56 | – | 88 | 2.26 | 77.8 | 11.1 | 132 | 40.5 | 26.4 |
| COc1cc(-c2cc(-c3ccccc3)on2)ccc1O | 0.57 | – | – | – | – | – | – | – | – |
| COc1cc(-c2cc(-c3ccc(O)cc3)on2)cc(OC)c1OC | 0.63 | – | – | – | – | – | – | – | – |
| CC(C)OC(=O)C(C)(C)Oc1ccc(C(=O)c2ccc(Cl)cc2)cc1 [FENOFIBRATE] | – | – | 116.5 | – | 83.6 | 48.2 | 119 | 44.5 | 23.8 |
| Oc1ccc(-c2cc(-c3ccco3)no2)cc1 | 0.61 | – | – | – | – | – | – | – | – |
| O=C(O)COc1ccc(-c2cc(-c3ccc(F)cc3)on2)cc1 | 0.52 | – | 81 | 1.43 | 85.95 | 16.4 | 105.5 | 43.5 | 21.1 |
| Oc1ccc(-c2cc(-c3ccc(Cl)cc3)no2)cc1 | 0.6 | – | – | – | – | – | – | – | – |
| O=C(O)COc1ccc(-c2cc(-c3ccco3)no2)cc1 | 0.46 | – | 87 | 1.69 | 83.4 | 22.4 | 113 | 42 | 22.6 |
| COc1ccccc1-c1cc(-c2ccc(O)cc2)on1 | 0.59 | – | – | – | – | – | – | – | – |
| O=C(O)COc1ccc(-c2cc(-c3c(Cl)cccc3Cl)no2)cc1 | 0.5 | – | 90 | 1.55 | 84.77 | 22.8 | 113.5 | 44.5 | 22.7 |
